Article PMC9248904, “Genomic and Chemical Decryption of the Bacteroidetes Phylum for Its Potential to Biosynthesize Natural Products” (Microbiology Spectrum, 2022)
Values after ≈ are worked out from the molar mass of the structure shown. Like-named read-outs stand apart in the source and are kept apart here. *1 amine or outer side, *2 acyl side, *3 side chain or, on linkers, in order; H or OH if unused. Where a SMILES comes first, the peptide text is derived from it. Bridges are numbered along the chain shown (N, C = ends). [ ]: non-standard residue; d: D form. The star is where a group is joined. Phe(3R-OH) = O=C([C@@H](N[*:1])[C@H](O[*:3])c1ccccc1)[*:2]; Asp(3S-OH) = N[C@H](C(=O)O)[C@H](O)C(=O)O; Ile(3R-OH) = CC[C@@](C)(O)[C@H](N)C(=O)O; d(aIle) = CC[C@H](C)[C@@H](N)C(=O)O; d(aThr) = C[C@@H](O)[C@@H](N)C(=O)O; X1 = CC(C)CCCCCC(N)C(C)C(=O)*; NMeV = CN[C@H](C(=O)O)C(C)C; X2 = CCCCCCCC(N)C(C)C(=O)*; Dap = NC[C@H](N)C(=O)O

Key:
[1] = tested on: Mycobacterium smegmatis ATCC 607; assay: microbe, parasite or virus in culture; type: cell-based; conditions: M. smegmatis ATCC 607, BHI broth + 1% Tween 80, 2 days 37°C, BacTiter-Glo, Iron -, at least triplicate
Procedure: (§1) The MIC was determined by broth microdilution method in 96-well plates with 100 µL assay volume per well following EUCAST instructions ([116], [117]) for E. coli ATCC 35218, E. coli ATCC 25922 ΔTolC, E. coli MG1655, Pseudomonas aeruginosa ATCC 27853, P. aeruginosa PAO750, Klebsiella pneumoniae ATCC 13883, Moraxella catarrhalis ATCC 25238, Acinetobacter baumannii ATCC 19606, Bacillus subtilis DSM 10, Staphylococcus aureus ATCC 25923, and Micrococcus luteus DSM 20030. Listeria monocytogenes DSM 20600 (1 day of incubation at 37°C) and Mycobacterium smegmatis ATCC 607 (2 days of incubation at 37°C) were grown in BHI broth supplemented with 1% (vol/vol) Tween 80. Candida albicans FH2173 was grown in MHIIB over 2 days of incubation at 37°C (pre-culture 2 days at 28°C). Approximate inoculation cell density for all strains was 500,000 CFU/mL, except 1,000,000 CFU/mL were used for M. smegmatis and C. albicans. For all fungal screenings 100,000 spores/mL were used and incubated at 37°C for Aspergillus flavus ATCC 9170 (MHIIB) and 25°C for Z. tritici MUCL45407 (4 g/L yeast extract, 4 g/L malt extract, 4 g/L sucrose) and Fusarium oxysporum ATCC 7601 (potato dextrose broth, Sigma). Growth inhibition was detected by optical density (600 nm) or for M. luteus, L. monocytogenes, C. albicans, M. smegmatis, and all fungi by quantification of free ATP using BacTiter-Glo after 24 to 48 h (72 h for Z. tritici). All MIC assays were performed at least in triplicate. FE(III)-citrate was added at molar ratios of 1:1 to samples in DMSO to test compounds in their iron bound conformation.

[2] = tested on: Aspergillus flavus ATCC 9170; assay: microbe, parasite or virus in culture; type: cell-based
Procedure: as §1

[3] = tested on: Fusarium oxysporum ATCC 7601; assay: microbe, parasite or virus in culture; type: cell-based
Procedure: as §1

Candida albicans FH2173 = assay: microbe, parasite or virus in culture; type: cell-based; conditions: C. albicans FH2173, at least triplicate; for MIC: MHIIB, 2 days 37°C, BacTiter-Glo, Iron -
Procedure: as §1

E. coli ATCC 25922 ΔTolC = type: cell-based, Escherichia coli; conditions: broth microdilution, 96-well, EUCAST, OD600, Iron -, at least triplicate
Procedure: as §1

E. coli ATCC 35218 = type: cell-based, Escherichia coli
Procedure: as §1

[4] = tested on: Pseudomonas aeruginosa ATCC 27853; type: cell-based
Procedure: as §1

[5] = tested on: Micrococcus luteus DSM 20030; type: cell-based
Procedure: as §1

[6] = tested on: Staphylococcus aureus ATCC 25923; type: cell-based
Procedure: as §1

[7] = tested on: Acinetobacter baumannii ATCC 19606; type: cell-based
Procedure: as §1

[8] = tested on: Moraxella catarrhalis ATCC 25238; type: cell-based
Procedure: as §1

Bacillus subtilis DSM 10 = type: cell-based
Procedure: as §1

Z. tritici MUCL45407 = assay: microbe, parasite or virus in culture; type: cell-based
Procedure: as §1

E. coli MG1655 = type: cell-based, Escherichia coli; conditions: broth microdilution, 96-well, EUCAST, OD600, Iron -, at least triplicate
Procedure: as §1

[9] = tested on: Klebsiella pneumoniae ATCC 13883; type: cell-based; conditions: ATCC 13883
Procedure: as §1

P. aeruginosa PAO750 = type: cell-based, Pseudomonas aeruginosa; conditions: broth microdilution, 96-well, EUCAST, OD600, Iron -, at least triplicate
Procedure: as §1

[10] = A. flavus ATCC 9170, MHIIB, 37°C, 100,000 spores/mL, BacTiter-Glo, Iron -, at least triplicate
[11] = F. oxysporum ATCC 7601, potato dextrose broth, 25°C, 100,000 spores/mL, BacTiter-Glo, Iron -, at least triplicate
[12] = E. coli ATCC 35218, broth microdilution, 96-well, EUCAST, OD600, chitinopeptins without iron (Iron -), at least triplicate
[13] = P. aeruginosa ATCC 27853, broth microdilution, 96-well, EUCAST, OD600, Iron -, at least triplicate
[14] = M. luteus DSM 20030, broth microdilution, 96-well, free ATP (BacTiter-Glo), Iron -, at least triplicate
[15] = S. aureus ATCC 25923, broth microdilution, 96-well, EUCAST, OD600, Iron -, at least triplicate
[16] = A. baumannii ATCC 19606, broth microdilution, 96-well, EUCAST, OD600, Iron -, at least triplicate
[17] = M. catarrhalis ATCC 25238, broth microdilution, 96-well, EUCAST, OD600, Iron -, at least triplicate
[18] = B. subtilis DSM 10, broth microdilution, 96-well, EUCAST, OD600, Iron -, at least triplicate
[19] = Z. tritici MUCL45407, 25°C, 72 h, 100,000 spores/mL, BacTiter-Glo, Iron -, at least triplicate
[20] = Fusarium oxysporum, ATCC7601, F. oxysporum ATCC 7601, potato dextrose broth, 25°C, 100,000 spores/mL, BacTiter-Glo, Iron -, at least triplicate, read-out: MIC
[21] = Candida albicans, 48 h, read-out: MIC

## Chitinopeptin D1+D2
[1]
  MIC: > 64 µg/mL
[2]; [10]
  MIC: 64 µg/mL
[3]; [11]
  MIC: > 64 µg/mL
Candida albicans FH2173
  MIC: 16 µg/mL
E. coli ATCC 25922 ΔTolC
  MIC: > 64 µg/mL
E. coli ATCC 35218; [12]
  MIC: > 64 µg/mL
[4]; [13]
  MIC: > 64 µg/mL
[5]; [14]
  MIC: 32 µg/mL
[6]; [15]
  MIC: > 64 µg/mL
[7]; [16]
  MIC: 16 µg/mL
[8]; [17]
  MIC: 2 µg/mL
Bacillus subtilis DSM 10; [18]
  MIC: 4 µg/mL

## CC[C@H](C)[C@H]1NC(=O)[C@H]([C@H](O)c2ccccc2)NC(=O)[C@H]([C@H](O)C(=O)O)NC(=O)[C@@H](C)NC(=O)[C@H](NC(=O)[C@H](C(C)C)N(C)C(=O)C(C)C(N)CCCCCC(C)C)[C@@H](C)OC(=O)[C@H]([C@](C)(O)CC)NC(=O)[C@H]([C@H](O)C(=O)O)NC(=O)[C@H](CC(C)C)NC(=O)[C@H]([C@H](O)C(=O)O)NC(=O)[C@@H](CC(C)C)NC(=O)[C@H](CN)NC(=O)[C@@H](CCCCN)NC(=O)[C@H](CO)NC1=O (stereo partly drawn) [Chitinopeptin A] (X1-[NMeV][d(aThr)][dA][Asp(3S-OH)][Phe(3R-OH)][d(aIle)]S[dK][Dap][dL][Asp(3S-OH)]L[Asp(3S-OH)][Ile(3R-OH)]; ester 2-C)
Z. tritici MUCL45407; [19]
  MIC: 16 µg/mL (≈ 8.84 µM)
[2]; ATCC 9170
  MIC: > 64 µg/mL
[3]; ATCC 7601
  MIC: > 64 µg/mL
Candida albicans FH2173; Iron +: Fe(III)-citrate added at molar ratio 1:1
  MIC, iron bound form: 32 µg/mL
Candida albicans FH2173
  MIC: 4 µg/mL (≈ 2.21 µM)
Candida albicans FH2173; listed as 1
  MIC: 4 to 8 µg/mL
E. coli MG1655
  MIC: > 256 µg/mL
E. coli ATCC 25922 ΔTolC
  MIC: > 64 µg/mL
E. coli ATCC 35218; ATCC 35218
  MIC: > 64 µg/mL
[4]; ATCC 27853
  MIC: > 64 µg/mL
[5]; DSM 20030
  MIC: 32 µg/mL (≈ 17.7 µM)
[6]; ATCC 25923
  MIC: > 64 µg/mL
[7]; ATCC 19606
  MIC: 16 µg/mL (≈ 8.84 µM)
[8]; ATCC 25238
  MIC: 2 µg/mL (≈ 1.11 µM)
  MIC, iron bound form: 4 µg/mL (≈ 2.21 µM)
Bacillus subtilis DSM 10; DSM 10
  MIC: 4 µg/mL (≈ 2.21 µM)
  MIC, iron bound form: 8 µg/mL (≈ 4.42 µM)
[9]
  MIC: > 64 µg/mL
P. aeruginosa PAO750
  MIC: > 64 µg/mL

## C[C@@H]1[C@H](O)[C@@H](C)/C=C/C=C/CC/C=C/C=C/C=C/C=C/C(O[C@H]2O[C@H](C)[C@@H](O)[C@H](N)[C@@H]2O)CC2O[C@](O)(CC(O)C(O)CCC(O)CC(O)CC(O)CC(=O)O[C@H]1C)CC(O)C2C(=O)O (stereo partly drawn) [Nystatin, reference compound]
Z. tritici MUCL45407; [19]
  MIC: 0.5 µg/mL (≈ 0.54 µM)
[2]; [10]
  MIC: 16 µg/mL (≈ 17.3 µM)
[3]; [11]
  MIC: 4 µg/mL (≈ 4.32 µM)
Candida albicans FH2173
  MIC: 16 µg/mL (≈ 17.3 µM)

## C[C@@H]1[C@H](O)[C@@H](C)/C=C/C=C/C=C/C=C/C=C/C=C/C=C/[C@H](O[C@@H]2O[C@H](C)[C@@H](O)[C@H](N)[C@@H]2O)C[C@@H]2O[C@](O)(C[C@@H](O)C[C@@H](O)[C@H](O)CC[C@@H](O)C[C@@H](O)CC(=O)O[C@H]1C)C[C@H](O)[C@H]2C(=O)O [Amphotericin B, reference compound]
Z. tritici MUCL45407; Zymoseptoria tritici, MUCL45407, 72 h
  MIC: 0.031 µg/mL (≈ 0.0335 µM)
[3]; [20]
  MIC: 4 µg/mL (≈ 4.33 µM)
Candida albicans FH2173; [21]
  MIC: 4 µg/mL (≈ 4.33 µM)

## CC(C)(C)C(O)(CCc1ccc(Cl)cc1)Cn1cncn1 (stereo not drawn) [Tebuconazole, reference compound]
Z. tritici MUCL45407; Zymoseptoria tritici, Z. tritici MUCL45407, 25°C, 72 h, 100,000 spores/mL, BacTiter-Glo, Iron -, at least triplicate, read-out: MIC
  MIC: 0.5 µg/mL (≈ 1.62 µM)
[2]; Aspergillus flavus, ATCC9170, A. flavus ATCC 9170, MHIIB, 37°C, 100,000 spores/mL, BacTiter-Glo, Iron -, at least triplicate, read-out: MIC
  MIC: 2 µg/mL (≈ 6.5 µM)
[3]; [20]
  MIC: > 64 µg/mL
Candida albicans FH2173; [21]
  MIC: 2 µg/mL (≈ 6.5 µM)

## CCCCCCCC(N)C(C)C(=O)N(C)[C@H](C(=O)N[C@H]1C(=O)N[C@H](C)C(=O)N[C@@H]([C@H](O)C(=O)O)C(=O)N[C@@H]([C@H](O)c2ccccc2)C(=O)N[C@H]([C@@H](C)CC)C(=O)N[C@@H](CO)C(=O)N[C@H](CCCCN)C(=O)N[C@@H](CN)C(=O)N[C@H](CC(C)C)C(=O)N[C@@H]([C@H](O)C(=O)O)C(=O)N[C@@H](CC(C)C)C(=O)N[C@@H]([C@H](O)C(=O)O)C(=O)N[C@@H]([C@](C)(O)CC)C(=O)O[C@@H]1C)C(C)C (stereo partly drawn) [Chitinopeptin B] (X2-[NMeV][d(aThr)][dA][Asp(3S-OH)][Phe(3R-OH)][d(aIle)]S[dK][Dap][dL][Asp(3S-OH)]L[Asp(3S-OH)][Ile(3R-OH)]; ester 2-C)
Z. tritici MUCL45407; [19]
  MIC: 16 µg/mL (≈ 8.91 µM)
[2]; ATCC 9170
  MIC: > 64 µg/mL
[3]; ATCC 7601
  MIC: > 64 µg/mL
Candida albicans FH2173
  MIC: 8 µg/mL (≈ 4.46 µM)
Candida albicans FH2173; listed as 2
  MIC: 4 to 8 µg/mL
E. coli ATCC 25922 ΔTolC
  MIC: > 64 µg/mL
E. coli ATCC 35218; ATCC 35218
  MIC: > 64 µg/mL
[4]; ATCC 27853
  MIC: > 64 µg/mL
[5]; DSM 20030
  MIC: 32 µg/mL (≈ 17.8 µM)
[6]; ATCC 25923
  MIC: > 64 µg/mL
[7]; ATCC 19606
  MIC: 64 µg/mL (≈ 35.7 µM)
[8]; ATCC 25238
  MIC: 2 µg/mL (≈ 1.11 µM)
Bacillus subtilis DSM 10; DSM 10
  MIC: 4 µg/mL (≈ 2.23 µM)

## NNC(=O)c1ccncc1 [Isoniazid, reference compound]
[1]; Mycolicibacterium smegmatis, ATCC607, 48 h, read-out: MIC
  MIC: 1 µg/mL

## Chitinopeptin C1+C2
Z. tritici MUCL45407; [19]
  MIC: 16 µg/mL
[1]
  MIC: > 64 µg/mL
[2]; [10]
  MIC: 64 µg/mL
[3]; [11]
  MIC: > 64 µg/mL
Candida albicans FH2173
  MIC: 16 µg/mL
E. coli ATCC 25922 ΔTolC
  MIC: > 64 µg/mL
E. coli ATCC 35218; [12]
  MIC: > 64 µg/mL
[4]; [13]
  MIC: > 64 µg/mL
[5]; [14]
  MIC: 32 µg/mL
[6]; [15]
  MIC: > 64 µg/mL
[7]; [16]
  MIC: 16 µg/mL
[8]; [17]
  MIC: 2 µg/mL
Bacillus subtilis DSM 10; [18]
  MIC: 4 µg/mL
